Assay results: PMC10250785, “Aromatic oligoesters as novel helix mimetic scaffolds” (Bioorganic & Medicinal Chemistry, 2023)

How the values were obtained:
[1] = Aqueous stability of dimers in buffered pH solutions (TLC, LCMS/HPLC UV); type: physicochemical; conditions: r.t.; for remaining at 168 h, 5 mg/mL: bicarbonate buffer pH 12.5 / acetonitrile (1:1), pH 12.5 (bicarbonate) buffer, 50% MeCN: buffer, 5 mg/mL dimer, after 7 days, from HPLC UV traces
Procedure: Human serum pH is tightly regulated around 7.4, with intracellular pH controlled between pH 6.0–7.2, and gastric pH between 1.4–3.5.[37] […] Given the prevalence of ester linkages in pro-drug structures[38] and the facile hydrolysis of esters in aqueous media, the stability of our scaffold was a concern. We therefore investigated the stability of dimers 25 and 29 over extended periods of time in aqueous solution from pH2.5–12.5. To monitor dimer stability over time, 10 mM pH buffer solutions of: 2.5(acetate), 5.0(acetate), 7.4 (phosphate-buffered saline), 10.0 (bicarbonate), and 12.5 (bicarbonate) were selected, to obtain a pH range similar to those present within the human body. Since both dimers are insoluble in water, they were firstly dissolved in acetonitrile, before addition to the buffered solutions to form a 5 mg/mL dimer solution (50% MeCN: buffer). Degradation was monitored via TLC over time, and the final solution composition was determined by LCMS after 7 days (Fig 3 and Figure S3).
Fig. 3 Dimers 25 and 29 were incubated for 7 days in a range of buffered pH solutions and % dimer remaining measured by integration of UV peaks from an HPLC Diode array trace.
To pre-prepared 100 mM pH buffer solutions (1.00 mL), including pH 2.5, 5.0, 7.4, 10.0 and 12.5 (Table 2), was added the dimer (10 mg/mL in MeCN) at r.t, forming a final solution with dimer concentration 5 mg/mL. The mixture was stirred at r.t. for 7 days and monitored via TLC and LCMS (50% MeCN) to follow ester bond degradation.

Question: With `C=CCOc1ccc(C(=O)Oc2ccc(C(=O)OC)cc2OC(C)C)cc1OC(C)C` [Compound 25, 2-isopropoxy-4-(methoxycarbonyl)phenyl 4-(allyloxy)-3-isopropoxybenzoate] as the compound, how does the remaining at 168 h, 5 mg/mL [1] read?
Answer: 6%

Question: And the “time before ester hydrolysis occurs” value ([1]; pH 12.5, 50% MeCN: buffer)?
Answer: > 5 days

Question: For `C=CCOc1ccc(C(=O)OC)cc1O` [Compound 1, Methyl 4-(allyloxy)-3-hydroxybenzoate], which melting point is on record?
Answer: 67 to 68 °C

Question: For `COC(=O)c1ccc(OC(=O)c2ccc(O)c(OC)c2)c(OC)c1` [Compound 29, 2-methyoxy-4-(methoxycarbonyl)phenyl 4-hydroxy-3-methoxybenzoate], which remaining at 168 h, 5 mg/mL [1] is on record?
Answer: 49%
